Measured values from PMC7617869, “Molecular glues that inhibit deubiquitylase activity and inflammatory signaling” (Nature Structural & Molecular Biology, 2025).
Values joined by “and” are separate entries in the source; they are usually repeats but may differ in a detail not shown here. Equal values may be shown once.

Tests used:
Assay type in all cases: biochemical
[1] = biological target: T1, panel of 48 purified DUBs (Homo sapiens, UniProt Q8N6M0); assay: DUB selectivity profiling (DUBprofiler, ubiquitin–rhodamine(110)–glycine); conditions: DUB OTUD6B; screening concentration 5 μM; 5 µM
T1 construct: purchased Ubiquigent (DUBprofiler service)
T1 sequence (Q8N6M0 whole entry): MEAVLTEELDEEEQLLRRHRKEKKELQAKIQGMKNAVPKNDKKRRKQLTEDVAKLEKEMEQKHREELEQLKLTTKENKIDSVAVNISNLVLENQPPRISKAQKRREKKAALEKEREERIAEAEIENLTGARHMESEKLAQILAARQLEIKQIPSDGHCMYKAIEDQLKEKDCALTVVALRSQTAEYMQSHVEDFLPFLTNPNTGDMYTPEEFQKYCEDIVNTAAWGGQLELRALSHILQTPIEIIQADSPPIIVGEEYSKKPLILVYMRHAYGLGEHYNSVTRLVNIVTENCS
Procedure: (§1) Biochemical selectivity profiling (DUBprofiler) was performed by Ubiquigent with a panel of 48 purified DUBs and ubiquitin–rhodamine(110)–glycine as a fluorescent substrate.

[2] = biological target: T2, panel of 48 purified DUBs (Homo sapiens, UniProt Q5VVQ6); assay: as above; conditions: DUB OTU1; screening concentration 5 μM
T2 construct: purchased Ubiquigent (DUBprofiler service)
Procedure: as §1

[3] = biological target: T3, panel of 48 purified DUBs (Homo sapiens, UniProt Q15040); assay: as above; conditions: DUB JOSD1; screening concentration 5 μM
T3 construct: purchased Ubiquigent (DUBprofiler service)
Procedure: as §1

[4] = biological target: T4, panel of 48 purified DUBs (Homo sapiens, UniProt P54578); assay: as above; conditions: DUB USP14; screening concentration 5 μM; 5 µM
T4 construct: purchased Ubiquigent (DUBprofiler service)
T4 sequence (P54578 whole entry): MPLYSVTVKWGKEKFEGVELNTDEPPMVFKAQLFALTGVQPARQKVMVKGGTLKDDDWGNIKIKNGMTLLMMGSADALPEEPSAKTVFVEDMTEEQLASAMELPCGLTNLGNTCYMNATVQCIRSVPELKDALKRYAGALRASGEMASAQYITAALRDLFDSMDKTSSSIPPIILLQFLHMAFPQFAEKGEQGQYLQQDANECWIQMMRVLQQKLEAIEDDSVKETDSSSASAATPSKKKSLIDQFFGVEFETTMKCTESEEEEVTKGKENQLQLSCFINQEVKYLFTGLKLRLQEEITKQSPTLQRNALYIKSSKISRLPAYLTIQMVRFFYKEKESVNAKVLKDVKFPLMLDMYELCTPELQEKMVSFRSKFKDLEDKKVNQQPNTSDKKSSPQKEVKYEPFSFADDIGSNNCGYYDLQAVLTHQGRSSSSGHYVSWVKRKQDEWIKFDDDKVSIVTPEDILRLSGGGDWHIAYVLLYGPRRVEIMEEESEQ
Procedure: as §1

[5] = biological target: T5, panel of 48 purified DUBs (Homo sapiens, UniProt Q7L8S5); assay: as above; conditions: DUB OTUD6A; screening concentration 5 μM; 5 µM
T5 construct: purchased Ubiquigent (DUBprofiler service)
T5 sequence (Q7L8S5 whole entry): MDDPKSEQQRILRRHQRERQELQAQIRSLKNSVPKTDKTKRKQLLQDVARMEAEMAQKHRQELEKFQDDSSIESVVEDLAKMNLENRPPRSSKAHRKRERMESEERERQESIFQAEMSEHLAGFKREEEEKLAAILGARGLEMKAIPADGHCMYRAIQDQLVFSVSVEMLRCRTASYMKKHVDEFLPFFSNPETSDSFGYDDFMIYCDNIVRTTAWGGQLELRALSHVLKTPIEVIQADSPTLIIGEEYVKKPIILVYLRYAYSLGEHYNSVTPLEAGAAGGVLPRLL
Procedure: as §1

[6] = biological target: T6, panel of 48 purified DUBs (Homo sapiens, UniProt Q9NQC7); assay: as above; conditions: DUB CYLD; screening concentration 5 μM; 5 µM
T6 construct: purchased Ubiquigent (DUBprofiler service)
Procedure: as §1

[7] = biological target: T7, panel of 48 purified DUBs (Homo sapiens, UniProt Q9Y4E8); assay: as above; conditions: DUB USP15; screening concentration 5 μM; 5 µM
T7 construct: purchased Ubiquigent (DUBprofiler service)
T7 sequence (Q9Y4E8 whole entry): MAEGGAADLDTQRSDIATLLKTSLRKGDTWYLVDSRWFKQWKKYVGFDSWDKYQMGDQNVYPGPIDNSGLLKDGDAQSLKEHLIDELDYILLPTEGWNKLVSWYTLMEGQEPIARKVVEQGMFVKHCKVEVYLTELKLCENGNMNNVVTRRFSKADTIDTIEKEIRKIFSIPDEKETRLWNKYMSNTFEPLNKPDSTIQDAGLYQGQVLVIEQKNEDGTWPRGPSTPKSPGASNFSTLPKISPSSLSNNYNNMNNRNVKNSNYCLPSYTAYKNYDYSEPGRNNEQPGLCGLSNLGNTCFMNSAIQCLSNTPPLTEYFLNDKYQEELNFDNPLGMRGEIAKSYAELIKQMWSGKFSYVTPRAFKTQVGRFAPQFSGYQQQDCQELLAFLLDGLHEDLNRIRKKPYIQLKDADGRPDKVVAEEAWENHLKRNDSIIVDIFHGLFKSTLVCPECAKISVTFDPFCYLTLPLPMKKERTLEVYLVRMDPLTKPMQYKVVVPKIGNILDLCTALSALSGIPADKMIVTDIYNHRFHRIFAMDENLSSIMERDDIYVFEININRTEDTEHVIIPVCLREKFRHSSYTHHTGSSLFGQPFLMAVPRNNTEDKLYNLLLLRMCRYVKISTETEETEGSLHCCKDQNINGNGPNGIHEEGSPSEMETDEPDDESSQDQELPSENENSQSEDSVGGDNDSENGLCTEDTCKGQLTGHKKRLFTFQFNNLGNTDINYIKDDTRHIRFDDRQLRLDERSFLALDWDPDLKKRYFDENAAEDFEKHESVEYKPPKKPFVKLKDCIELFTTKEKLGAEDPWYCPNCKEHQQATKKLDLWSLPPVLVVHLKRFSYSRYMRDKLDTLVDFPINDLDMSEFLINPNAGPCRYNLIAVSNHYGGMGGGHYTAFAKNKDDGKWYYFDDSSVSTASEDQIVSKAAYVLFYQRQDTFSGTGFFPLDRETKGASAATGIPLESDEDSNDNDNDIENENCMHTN
Procedure: as §1

[8] = biological target: T8, panel of 48 purified DUBs (Homo sapiens, UniProt Q6GQQ9); assay: as above; conditions: DUB Cezanne; screening concentration 5 μM; 5 µM
T8 construct: purchased Ubiquigent (DUBprofiler service)
T8 sequence (Q6GQQ9 whole entry): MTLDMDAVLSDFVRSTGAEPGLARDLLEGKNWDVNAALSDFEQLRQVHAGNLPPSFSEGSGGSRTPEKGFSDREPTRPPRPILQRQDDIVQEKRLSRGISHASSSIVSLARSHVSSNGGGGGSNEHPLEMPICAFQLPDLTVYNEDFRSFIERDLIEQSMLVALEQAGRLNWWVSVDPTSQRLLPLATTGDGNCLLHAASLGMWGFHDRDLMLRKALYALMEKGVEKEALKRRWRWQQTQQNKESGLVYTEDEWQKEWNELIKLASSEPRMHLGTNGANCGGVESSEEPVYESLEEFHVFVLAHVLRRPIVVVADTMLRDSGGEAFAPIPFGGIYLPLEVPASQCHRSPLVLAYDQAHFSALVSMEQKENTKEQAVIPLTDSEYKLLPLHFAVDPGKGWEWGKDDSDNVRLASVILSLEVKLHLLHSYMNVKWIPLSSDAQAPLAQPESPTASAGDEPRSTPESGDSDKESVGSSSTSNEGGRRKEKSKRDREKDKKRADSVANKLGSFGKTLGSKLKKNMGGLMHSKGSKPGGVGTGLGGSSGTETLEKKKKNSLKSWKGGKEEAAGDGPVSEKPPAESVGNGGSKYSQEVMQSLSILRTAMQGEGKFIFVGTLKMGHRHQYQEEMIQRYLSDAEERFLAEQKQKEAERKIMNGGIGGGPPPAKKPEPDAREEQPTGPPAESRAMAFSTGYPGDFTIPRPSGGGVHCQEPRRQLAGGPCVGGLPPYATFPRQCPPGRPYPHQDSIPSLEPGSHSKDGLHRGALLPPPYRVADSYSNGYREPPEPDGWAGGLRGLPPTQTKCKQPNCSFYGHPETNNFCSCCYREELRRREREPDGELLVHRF
Procedure: as §1

[9] = system: panel of 48 purified DUBs; assay: as above; conditions: single dose 5 μM, including AMSH-LP
Procedure: as §1

[10] = biological target: T9, panel of 48 purified DUBs (Homo sapiens, UniProt O75604); assay: as above; conditions: DUB USP2; screening concentration 5 μM; 5 µM
T9 construct: purchased Ubiquigent (DUBprofiler service)
T9 sequence (O75604 whole entry): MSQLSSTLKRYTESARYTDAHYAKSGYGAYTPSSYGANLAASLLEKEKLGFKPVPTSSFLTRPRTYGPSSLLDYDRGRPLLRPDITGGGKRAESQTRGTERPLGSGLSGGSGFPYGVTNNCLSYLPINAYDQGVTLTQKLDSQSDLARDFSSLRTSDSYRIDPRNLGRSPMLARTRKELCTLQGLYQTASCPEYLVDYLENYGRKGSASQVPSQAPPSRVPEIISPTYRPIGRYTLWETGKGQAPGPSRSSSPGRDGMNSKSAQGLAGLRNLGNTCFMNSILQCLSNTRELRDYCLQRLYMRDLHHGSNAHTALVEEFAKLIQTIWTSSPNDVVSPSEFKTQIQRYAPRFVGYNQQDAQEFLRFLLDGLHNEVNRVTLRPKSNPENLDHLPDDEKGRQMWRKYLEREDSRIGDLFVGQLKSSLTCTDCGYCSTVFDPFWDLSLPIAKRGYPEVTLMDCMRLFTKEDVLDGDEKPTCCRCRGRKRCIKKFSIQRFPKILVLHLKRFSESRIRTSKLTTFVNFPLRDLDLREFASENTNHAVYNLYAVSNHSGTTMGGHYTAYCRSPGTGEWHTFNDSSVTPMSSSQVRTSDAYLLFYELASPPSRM
Procedure: as §1

BRISC BRCC36 W130A = BRISC BRCC36 W130A (Homo sapiens, UniProt P46736+Q15018+Q9NXR7, W130A); assay: BRISC mutant IQF assay: BRCC36 W130A
Procedure: (§2) IQF assays were performed in DUB reaction buffer containing 50 mM HEPES–NaOH pH 7.0, 100 mM NaCl, 0.1 mg ml^−1 BSA, 1 mM DTT and 0.03% v/v Brij-35. […] The final concentration of BRISC WT, all BRISC mutants, HsBRISCΔLoop, MmBRISC and DrBRISCΔNΔC was 1 nM. Other enzymes were tested at the following concentrations: 5 nM ARISC (FL), 10 nM CfBRISCΔNΔC, 250 nM AMSH* (ref. [43]), 500 nM USP2 and 1 μM trypsin (Sigma, 9002-07-7). For Michaelis–Menten experiments, 1 nM BRISC with 0–1 μM IQF K63-linked diubiquitin substrate was used. Michaelis–Menten analyses and Lineweaver–Burk plots were calculated using GraphPad Prism (version 9.0).
(§3) To assess enzymatic activity, BRISC complexes were diluted to concentrations between 1 nM and 50 nM. […] Then, 20-μl enzyme reactions were carried out in 384-well black flat-bottom low-flange plates (Corning, 35373). DUB activity was measured using IQF K63-linked diubiquitin (LifeSensors, DU6303) at 50 nM. Cleaved diubiquitin was monitored by measuring fluorescence intensity (excitation, 544 nm; emission, 575 nm; dichroic mirror, 560 nm). Fluorescence intensity was measured every minute for 30 min at 30 °C. Fluorescence intensity units were plotted against time to generate a linear reaction progress curve, where the initial velocity (V0) corresponds to the gradient of the curve (typically achieved within 15 min). IC50 values were calculated using the GraphPad Prism (version 9.0) built-in dose–response equation for inhibitor concentration versus response (variable slope).

BRISC BRCC45 R137A = BRISC BRCC45 R137A (Homo sapiens, UniProt P46736+Q15018+Q9NXR7, R137A); assay: BRISC mutant IQF assay: BRCC45 R137A
Procedure: as §2, §3

MmBRISC = biological target: T10, MmBRISC (Mus musculus, UniProt P46737+Q3TCJ1+Q8K3W0); assay: MmBRISC IQF DUB activity assay; conditions: read-out: Normalised V0
T10 construct: made in house; host or cells: Trichoplusia ni cells (Bac-to-Bac, pFastBac-HTB)
T10 sequence (P46737 whole entry): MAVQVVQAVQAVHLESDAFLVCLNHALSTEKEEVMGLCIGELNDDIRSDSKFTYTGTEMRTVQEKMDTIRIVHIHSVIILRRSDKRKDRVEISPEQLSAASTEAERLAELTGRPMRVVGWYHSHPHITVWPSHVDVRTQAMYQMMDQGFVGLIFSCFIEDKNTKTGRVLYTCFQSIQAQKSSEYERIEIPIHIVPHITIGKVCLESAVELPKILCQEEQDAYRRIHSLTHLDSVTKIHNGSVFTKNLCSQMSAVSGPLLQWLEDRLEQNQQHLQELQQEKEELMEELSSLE
T10 sequence (Q3TCJ1 whole entry): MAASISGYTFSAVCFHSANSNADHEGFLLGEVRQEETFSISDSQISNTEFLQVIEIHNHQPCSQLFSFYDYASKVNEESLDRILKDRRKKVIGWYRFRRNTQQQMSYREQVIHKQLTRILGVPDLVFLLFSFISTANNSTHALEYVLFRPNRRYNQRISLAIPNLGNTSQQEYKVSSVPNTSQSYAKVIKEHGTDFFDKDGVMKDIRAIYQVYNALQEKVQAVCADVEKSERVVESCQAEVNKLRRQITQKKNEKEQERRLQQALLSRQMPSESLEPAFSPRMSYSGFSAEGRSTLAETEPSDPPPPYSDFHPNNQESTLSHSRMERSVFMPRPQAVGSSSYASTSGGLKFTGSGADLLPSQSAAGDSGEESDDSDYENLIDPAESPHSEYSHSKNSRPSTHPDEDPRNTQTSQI
T10 sequence (Q8K3W0 whole entry): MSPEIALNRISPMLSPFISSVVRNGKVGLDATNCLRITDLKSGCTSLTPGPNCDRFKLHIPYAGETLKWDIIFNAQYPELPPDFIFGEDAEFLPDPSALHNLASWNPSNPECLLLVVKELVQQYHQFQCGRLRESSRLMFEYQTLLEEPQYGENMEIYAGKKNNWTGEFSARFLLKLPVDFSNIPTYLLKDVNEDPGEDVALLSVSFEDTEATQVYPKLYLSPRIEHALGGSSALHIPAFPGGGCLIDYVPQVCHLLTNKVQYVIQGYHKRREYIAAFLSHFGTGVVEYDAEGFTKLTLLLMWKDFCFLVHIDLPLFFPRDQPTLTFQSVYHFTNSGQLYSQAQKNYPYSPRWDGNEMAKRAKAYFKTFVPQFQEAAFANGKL
T10 sequence (Q3UI43 whole entry partner): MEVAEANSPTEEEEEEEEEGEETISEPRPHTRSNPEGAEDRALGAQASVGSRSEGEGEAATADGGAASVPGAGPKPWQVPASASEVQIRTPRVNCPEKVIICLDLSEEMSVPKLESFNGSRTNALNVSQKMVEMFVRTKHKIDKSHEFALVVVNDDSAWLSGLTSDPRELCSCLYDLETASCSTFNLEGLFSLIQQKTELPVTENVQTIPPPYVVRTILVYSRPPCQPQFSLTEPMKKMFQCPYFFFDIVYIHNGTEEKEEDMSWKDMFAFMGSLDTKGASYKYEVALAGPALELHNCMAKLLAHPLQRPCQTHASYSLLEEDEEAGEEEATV
Procedure: as §2, §3

BRISC BRCC36 L169W = BRISC BRCC36 L169W (Homo sapiens, UniProt P46736+Q15018+Q9NXR7, L169W); assay: BRISC mutant IQF assay: BRCC36 L169W
Procedure: as §2, §3

BRISC BRCC45 C245A = BRISC BRCC45 C245A (Homo sapiens, UniProt P46736+Q15018+Q9NXR7, C245A); assay: BRISC mutant IQF assay: BRCC45 C245A
Procedure: as §2, §3

BRISC Abraxas2 I133W = BRISC Abraxas2 I133W (Homo sapiens, UniProt P46736+Q15018+Q9NXR7, I133W); assay: BRISC mutant IQF assay: Abraxas2 I133W
Procedure: as §2
To assess enzymatic activity, BRISC complexes were diluted to concentrations between 1 nM and 50 nM. […] DUB activity was measured using IQF K63-linked diubiquitin (LifeSensors, DU6303) at 50 nM. Cleaved diubiquitin was monitored by measuring fluorescence intensity (excitation, 544 nm; emission, 575 nm; dichroic mirror, 560 nm). Fluorescence intensity was measured every minute for 30 min at 30 °C. Fluorescence intensity units were plotted against time to generate a linear reaction progress curve, where the initial velocity (V0) corresponds to the gradient of the curve (typically achieved within 15 min). IC50 values were calculated using the GraphPad Prism (version 9.0) built-in dose–response equation for inhibitor concentration versus response (variable slope).

[11] = FX-171-C 0.0035 μM, read-out: Normalised V0
[12] = FX-171-C 0.035 μM, read-out: Normalised V0
[13] = FX-171-C 12.5 μM, read-out: Normalised V0
[14] = FX-171-C 50 μM, read-out: Normalised V0
[15] = FX-171-C 25 μM, read-out: Normalised V0
[16] = FX-171-C 0.35 μM, read-out: Normalised V0
[17] = FX-171-C 6.25 μM, read-out: Normalised V0

## O=C(NC1CCNCC1)c1nn(C(=O)c2c(Cl)cccc2Cl)cc1NC(=O)c1c(Cl)cccc1Cl [JMS-175-2]
[1]
  Activity (% control): 102 % control and 101 % control
[2]
  Activity (% control): 84 % control
[3]
  Activity (% control): 67 % control
[4]
  Activity (% control): 85 % control and 95 % control
[5]
  Activity (% control): 100 % control and 103 % control
[6]
  Activity (% control): 104 % control and 112 % control
[7]
  Activity (% control): 111 % control and 115 % control
[8]
  Activity (% control): 88 % control and 90 % control
[9]
  inhibition of a panel of 48 DUBs: did not fully inhibit any of the DUBs
[10]
  Activity (% control): 86 % control and 84 % control

## O=C(NC1C2CNCC21)c1nn(C(=O)c2c(Cl)cccc2Cl)cc1NC(=O)c1c(Cl)cccc1Cl (centres unmarked) [FX-171-C]
BRISC BRCC36 W130A
  IC50: 23 µM
BRISC BRCC36 W130A; [11]
  remaining activity at 0.0035 µM: 95.2%
BRISC BRCC36 W130A; [12]
  remaining activity at 0.035 µM: 96.5%
BRISC BRCC36 W130A; [13]
  remaining activity at 12.5 µM: 67.5%
BRISC BRCC36 W130A; [14]
  remaining activity at 50 µM: 40.4%
BRISC BRCC36 W130A; FX-171-C 100 μM, read-out: Normalised V0
  remaining activity at 100 µM: 21%
BRISC BRCC45 R137A
  IC50: > 100 µM
  inhibitor sensitivity vs BRISC WT: reduced sensitivity to inhibition
BRISC BRCC45 R137A; [13]
  remaining activity at 12.5 µM: 87.5%
BRISC BRCC45 R137A; [15]
  remaining activity at 25 µM: 80.1%
MmBRISC; FX-171-C 0.02 μM
  remaining activity at 0.02 µM: 101%
MmBRISC; FX-171-C 0.0399999 μM
  remaining activity at 0.0399999 µM: 89.4%
MmBRISC; FX-171-C 0.0599997 μM
  remaining activity at 0.0599997 µM: 106%
MmBRISC; FX-171-C 0.0799994 μM
  remaining activity at 0.0799994 µM: 102%
MmBRISC; FX-171-C 0.119998 μM
  remaining activity at 0.119998 µM: 107%
MmBRISC; FX-171-C 0.199996 μM
  remaining activity at 0.199996 µM: 106%
MmBRISC; FX-171-C 0.499975 μM
  remaining activity at 0.499975 µM: 94.9%
MmBRISC; FX-171-C 0.799937 μM
  remaining activity at 0.799937 µM: 98%
MmBRISC; FX-171-C 1.25984 μM
  remaining activity at 1.25984 µM: 89.8%
MmBRISC; FX-171-C 1.9996 μM
  remaining activity at 1.9996 µM: 97.6%
MmBRISC; FX-171-C 3.159 μM
  remaining activity at 3.159 µM: 92.5%
MmBRISC; FX-171-C 5.19739 μM
  remaining activity at 5.19739 µM: 87.1%
MmBRISC; FX-171-C 7.99364 μM
  remaining activity at 7.99364 µM: 68.2%
MmBRISC; FX-171-C 12.7839 μM
  remaining activity at 12.7839 µM: 57.7%
MmBRISC; FX-171-C 19.96 μM
  remaining activity at 19.96 µM: 43.1%
MmBRISC; FX-171-C 31.4999 μM
  remaining activity at 31.4999 µM: 34%
MmBRISC; FX-171-C 50.147 μM
  remaining activity at 50.147 µM: 24.4%
MmBRISC; FX-171-C 79.7601 μM
  remaining activity at 79.7601 µM: 22.6%
MmBRISC; FX-171-C 125.99 μM
  remaining activity at 125.99 µM: 12%
BRISC BRCC36 L169W
  IC50: 91 µM
  reduction of inhibition over wild-type complex: > 100 fold
BRISC BRCC36 L169W; [11]
  remaining activity at 0.0035 µM: 94%
BRISC BRCC36 L169W; [12]
  remaining activity at 0.035 µM: 91.9%
BRISC BRCC36 L169W; [16]
  remaining activity at 0.35 µM: 94%
BRISC BRCC36 L169W; FX-171-C 3.1 μM, read-out: Normalised V0
  remaining activity at 3.1 µM: 93.5%
BRISC BRCC36 L169W; [17]
  remaining activity at 6.25 µM: 90.3%
BRISC BRCC36 L169W; [13]
  remaining activity at 12.5 µM: 89.8%
BRISC BRCC36 L169W; [15]
  remaining activity at 25 µM: 93.8%
BRISC BRCC36 L169W; [14]
  remaining activity at 50 µM: 84.8%
BRISC BRCC45 C245A
  IC50: 31 µM
  inhibitor sensitivity vs BRISC WT: reduced sensitivity to inhibition
BRISC BRCC45 C245A; [11]
  remaining activity at 0.0035 µM: 97.7%
BRISC BRCC45 C245A; [12]
  remaining activity at 0.035 µM: 74.6%
BRISC BRCC45 C245A; [16]
  remaining activity at 0.35 µM: 94.7%
BRISC BRCC45 C245A; [17]
  remaining activity at 6.25 µM: 66.4%
BRISC BRCC45 C245A; [13]
  remaining activity at 12.5 µM: 43.3%
BRISC BRCC45 C245A; [15]
  remaining activity at 25 µM: 46.6%
BRISC Abraxas2 I133W
  IC50: 2.3 µM
  inhibitor sensitivity vs BRISC WT: moderate to little effect on inhibitor sensitivity
